Measured values from ChEMBL document CHEMBL1133702.

The molecules below were run against Estrogen receptor (Ovis aries) (UniProt P49885+Q9TU15).

Point of comparison: C[C@]12C[C@H](c3ccc(OCCCCCI)cc3)[C@@H]3c4ccc(O)cc4CC[C@H]3[C@@H]1CC[C@@H]2O, RAC app 8.23. Against it:
- CN(CC#Cc1ccc([C@H]2C[C@]3(C)[C@@H](O)CC[C@H]3[C@@H]3CCc4cc(O)ccc4[C@H]32)cc1)C(=O)CCl — higher, 19.4
- CN(CCOc1ccc([C@H]2C[C@]3(C)[C@@H](O)CC[C@H]3[C@@H]3CCc4cc(O)ccc4[C@H]32)cc1)C(=O)CBr — lower, 4.22
- C[C@]12C[C@H](c3ccc(OCCCCCNC(=O)CBr)cc3)[C@@H]3c4ccc(O)cc4CC[C@H]3[C@@H]1CC[C@@H]2O — higher, 17.1
- C[C@]12C[C@H](c3ccc(OCCI)cc3)[C@@H]3c4ccc(O)cc4CC[C@H]3[C@@H]1CC[C@@H]2O — higher, 10.6
- C[C@]12C[C@H](c3ccc(C#CCNC(=O)CCl)cc3)[C@@H]3c4ccc(O)cc4CC[C@H]3[C@@H]1CC[C@@H]2O — higher, 14.5
- CN(CCOc1ccc([C@H]2C[C@]3(C)[C@@H](O)CC[C@H]3[C@@H]3CCc4cc(O)ccc4[C@H]32)cc1)C(=O)CCl — lower, 6.96
- CN(CCCCCOc1ccc([C@H]2C[C@]3(C)[C@@H](O)CC[C@H]3[C@@H]3CCc4cc(O)ccc4[C@H]32)cc1)C(=O)CBr — higher, 9.7
- C[C@]12C[C@H](c3ccc(OCCNC(=O)CCl)cc3)[C@@H]3c4ccc(O)cc4CC[C@H]3[C@@H]1CC[C@@H]2O — lower, 3.3
- C[C@]12C[C@H](c3ccc(OCCOS(C)(=O)=O)cc3)[C@@H]3c4ccc(O)cc4CC[C@H]3[C@@H]1CC[C@@H]2O — higher, 39.9
